Data published in paper PMC6277767, “Broad and Region-Specific Impacts of the Synthetic Cannabinoid CP 55,940 in Adolescent and Adult Female Mouse Brains” (Frontiers in Molecular Neuroscience, 2018).

Test system: CD1 female mouse brain lipidome
Assay: Brain-region lipid levels (HPLC/MS/MS lipidomics) 2 h after single i.p. 3 mg/kg CP 55,940 vs vehicle
Format: in vivo
Set-up: N-arachidonoyl phenylalanine level, Mean / N-stearoyl tryptophan level, Mean / N-stearoyl proline level, Mean / N-stearoyl leucine level, Mean / N-stearoyl phenylalanine level, Mean / N-stearoyl serine level, Mean / N-stearoyl methionine level, Mean: unit: moles per gram
Conditions: striatum
Method: The Bloomington Institutional Animal Care and Use Committee of Indiana University reviewed and approved the animal procedures. Female mice from the CD1 strain were utilized to match our study examining THC’s effects on the brain lipidome ([Leishman et al., 2018]). Mice were given a single i.p. injection of either 3 mg/kg CP or 1:1:18 cremophor:ethanol:saline vehicle (please refer to the section “3 mg/kg CP Is Relevant for Synthetic Cannabinoid Abuse and Has Stronger Effects on the Female Mouse Brain Lipidome During Adolescence” for a justification of dose and use of female mice). Three different age groups were given injections: PND 35 and PND 50 adolescents, and adult mice (PND 113). At least eight mice in each age group received CP and at least eight received vehicle. Matching the THC study time course ([Leishman et al., 2018]), mice were sacrificed via rapid decapitation 2 h after injection. Brains were immediately removed and flash-frozen in liquid nitrogen, and then stored at -80°C until dissections were performed. Brains were dissected on an ice-cold dissection plate into the following regions: STR, HIPP, CER, THAL, CTX, HYP, MID, and STEM. These abbreviations for these brain areas will be used exclusively when discussing the results generated by these specific dissections. Each dissected area was immediately placed in liquid nitrogen and then stored at -80°C until used for lipid extraction.
Tissue extracts were performed as previously described ([Bradshaw et al., 2006]; [Stuart et al., 2013]; [Raboune et al., 2014]; [Leishman et al., 2016a],[b], [2017], [2018]). First, samples were shock frozen in liquid nitrogen, weighed, and transferred to a centrifuge tube. The mass of the largest sample was multiplied by 50 to determine how many milliliters of HPLC-grade methanol (Fisher, Fair Lawn, NJ, United States) to add. Then, samples were spiked with 500 pmol deuterium-labeled NAGly (d8NAGly; Cayman Chemical, Ann Arbor, MI, United States). Samples were placed on ice in darkness for 2 h then individually homogenized and centrifuged at 19,000 × g for 20 min at 20°C. Supernatants were diluted with HPLC water (purified in house) to make a solution of 75% water, 25% supernatant. Lipids were partially purified on C18 solid phase extraction columns (Agilent, Palo Alto, CA, United States). A series of four elutions with 1.5 mL of 60%, 75%, 85%, and 100% methanol were collected ([Stuart et al., 2013]; [Leishman et al., 2016a],[b], [2018]).
As previously described ([Bradshaw et al., 2006]; [Tan et al., 2006]; [Smoum et al., 2010]; [Stuart et al., 2013]; [Tortoriello et al., 2013]; [Raboune et al., 2014]; [Leishman et al., 2016a],[b], [2017], [2018]), samples were analyzed using an Applied Biosystems API 3000 triple quadrupole mass spectrometer with electrospray ionization (Foster City, CA, United States). Using an Agilent XDB-C18 reversed phase analytical column and optimized mobile phase gradients, 20 μL from each elution were chromatographed. Two Shimadzu 10ADvp pumps (Columbia, MD, United States) provided the pressure for gradient elution. Mobile phase A: 20% methanol, 80% water (v/v) and 1 mM ammonium acetate (Sigma, St. Louis, MO, United States). Mobile phase B: 100% methanol, 1 mM ammonium acetate. Every method run began with 0% mobile phase B, reached 100% mobile phase B flowing at 0.2 mL/min, and gradually returned to 0% mobile phase B.
This screening library will be referred to as the lipidome when discussing data from this study. HPLC/MS/MS data were analyzed using Analyst software (Applied Biosystems) ([Bradshaw et al., 2006]; [Tan et al., 2006]; [Stuart et al., 2013]; [Tortoriello et al., 2013]; [Raboune et al., 2014]; [Leishman et al., 2016a],[b], [2017], [2018]). Chromatograms (Supplementary Figure 3) were generated by determining the retention time of analytes from the analytical column with a [M-1] or [M+1] parent peak and a fragmentation peak corresponding to the programmed values. […]

[1] = PND 50 female mice, 3mg/kg CP 55,940, mean

Structure (SMILES): CCCCCCC(C)(C)c1ccc([C@@H]2C[C@H](O)CC[C@H]2CCCO)c(O)c1 [CP 55,940]
- N-palmitoyl valine level [1]: 1.79E-13
- N-stearoyl GABA level [1]: 3.86E-12
- N-stearoyl alanine level [1]: 6.45E-13
- N-stearoyl ethanolamine level [1]: 2.79E-11
- N-stearoyl glycine level [1]: 4.91E-13
- N-stearoyl leucine level [1]: 1.1E-12
- N-stearoyl methionine level [1]: 8.01E-13
- N-stearoyl phenylalanine level [1]: 1.27E-12
- N-stearoyl proline level [1]: BDL
- N-stearoyl serine level [1]: 5.13E-11
- N-stearoyl tryptophan level [1]: BDL
- N-stearoyl tyrosine level [1]: 9.9E-14
- Oleic acid level [1]: 2.17E-10
- PGE2 level [1]: 7.65E-11
- PGF2α level [1]: 9.33E-11
- THC level [1]: BDL
- 2-arachidonoyl-sn-glycerol level, Mean (adult, 3 mg/kg CP 55,940): 1.6E-09
- 2-linoleoyl-sn-glycerol level, Mean (adult, 3 mg/kg CP 55,940): 1.72E-10
- 2-oleoyl-sn-glycerol level, Mean (adult, 3 mg/kg CP 55,940): 1.58E-09
- 2-palmitoyl-sn-glycerol level, Mean (adult, 3 mg/kg CP 55,940): 1.51E-10
- 6-ketoPGF1α level, Mean (adult, 3 mg/kg CP 55,940): PISSR
- 11-OH-THC level, Mean (adult, 3 mg/kg CP 55,940): BDL
- 11-nor-9-carboxyTHC level, Mean (adult, 3 mg/kg CP 55,940): BDL
- Arachidonic acid level, Mean (adult, 3 mg/kg CP 55,940): 1.93E-09
- Cannabidiol level, Mean (adult, 3 mg/kg CP 55,940): BDL
- Linoleic acid level, Mean (adult, 3 mg/kg CP 55,940): 7.69E-10
- N- stearoyl valine level, Mean (adult, 3 mg/kg CP 55,940): PISSR
- N-arachidonoyl GABA level, Mean (adult, 3 mg/kg CP 55,940): 2.43E-11
- N-arachidonoyl alanine level, Mean (adult, 3 mg/kg CP 55,940): 2.03E-12
- N-arachidonoyl dopamine level, Mean (adult, 3 mg/kg CP 55,940): BDL
- N-arachidonoyl ethanolamine level, Mean (adult, 3 mg/kg CP 55,940): 2.19E-11
- N-arachidonoyl glycine level, Mean (adult, 3 mg/kg CP 55,940): 6.38E-13
- N-arachidonoyl methionine level, Mean (adult, 3 mg/kg CP 55,940): BDL
- N-arachidonoyl phenylalanine level, Mean (adult, 3 mg/kg CP 55,940): 9.64E-14
- N-arachidonoyl proline level, Mean (adult, 3 mg/kg CP 55,940): BDL
- N-arachidonoyl serine level, Mean (adult, 3 mg/kg CP 55,940): PISSR
- N-arachidonoyl taurine level, Mean (adult, 3 mg/kg CP 55,940): 9.74E-11
- N-arachidonoyl tryptophan level, Mean (adult, 3 mg/kg CP 55,940): BDL
- N-arachidonoyl tyrosine level, Mean (adult, 3 mg/kg CP 55,940): PISSR
- N-docosahexaenoyl GABA level, Mean (adult, 3 mg/kg CP 55,940): PISSR
- N-docosahexaenoyl alanine level, Mean (adult, 3 mg/kg CP 55,940): BDL
- N-docosahexaenoyl ethanolamine level, Mean (adult, 3 mg/kg CP 55,940): 2.36E-11
- N-docosahexaenoyl glycine level, Mean (adult, 3 mg/kg CP 55,940): PISSR
- N-docosahexaenoyl leucine level, Mean (adult, 3 mg/kg CP 55,940): PISSR
- N-docosahexaenoyl methionine level, Mean (adult, 3 mg/kg CP 55,940): BDL
- N-docosahexaenoyl phenylalanine level, Mean (adult, 3 mg/kg CP 55,940): PISSR
- N-docosahexaenoyl proline level, Mean (adult, 3 mg/kg CP 55,940): BDL
- N-docosahexaenoyl serine level, Mean (adult, 3 mg/kg CP 55,940): PISSR
- N-docosahexaenoyl tryptophan level, Mean (adult, 3 mg/kg CP 55,940): BDL
- N-docosahexaenoyl tyrosine level, Mean (adult, 3 mg/kg CP 55,940): PISSR
- N-docosahexaenoyl valine level, Mean (adult, 3 mg/kg CP 55,940): BDL
- N-linoleoyl GABA level, Mean (adult, 3 mg/kg CP 55,940): PISSR
- N-linoleoyl alanine level, Mean (adult, 3 mg/kg CP 55,940): PISSR
- N-linoleoyl ethanolamine level, Mean (adult, 3 mg/kg CP 55,940): 3.83E-11
- N-linoleoyl glycine level, Mean (adult, 3 mg/kg CP 55,940): PISSR
- N-linoleoyl leucine level, Mean (adult, 3 mg/kg CP 55,940): PISSR
- N-linoleoyl methionine level, Mean (adult, 3 mg/kg CP 55,940): BDL
- N-linoleoyl phenylalanine level, Mean (adult, 3 mg/kg CP 55,940): PISSR
- N-linoleoyl proline level, Mean (adult, 3 mg/kg CP 55,940): BDL
- N-linoleoyl serine level, Mean (adult, 3 mg/kg CP 55,940): 1.09E-10
- N-linoleoyl tryptophan level, Mean (adult, 3 mg/kg CP 55,940): BDL
- N-linoleoyl tyrosine level, Mean (adult, 3 mg/kg CP 55,940): BDL
- N-linoleoyl valine level, Mean (adult, 3 mg/kg CP 55,940): PISSR
- N-nervonoyl valine level, Mean (adult, 3 mg/kg CP 55,940): BDL
- N-oleoyl GABA level, Mean (adult, 3 mg/kg CP 55,940): 1.7E-11
- N-oleoyl alanine level, Mean (adult, 3 mg/kg CP 55,940): 3.96E-12
- N-oleoyl dopamine level, Mean (adult, 3 mg/kg CP 55,940): BDL
- N-oleoyl ethanolamine level, Mean (adult, 3 mg/kg CP 55,940): 1.57E-10
- N-oleoyl glycine level, Mean (adult, 3 mg/kg CP 55,940): 5.26E-13
- N-oleoyl leucine level, Mean (adult, 3 mg/kg CP 55,940): 1.99E-12
- N-oleoyl methionine level, Mean (adult, 3 mg/kg CP 55,940): PISSR
- N-oleoyl phenylalanine level, Mean (adult, 3 mg/kg CP 55,940): 4.84E-13
- N-oleoyl proline level, Mean (adult, 3 mg/kg CP 55,940): BDL
- N-oleoyl serine level, Mean (adult, 3 mg/kg CP 55,940): 5.05E-10
- N-oleoyl tryptophan level, Mean (adult, 3 mg/kg CP 55,940): BDL
- N-oleoyl tyrosine level, Mean (adult, 3 mg/kg CP 55,940): PISSR
- N-oleoyl valine level, Mean (adult, 3 mg/kg CP 55,940): PISSR
- N-palmitoyl GABA level, Mean (adult, 3 mg/kg CP 55,940): 2.94E-11
- N-palmitoyl alanine level, Mean (adult, 3 mg/kg CP 55,940): 3.83E-12
- N-palmitoyl ethanolamine level, Mean (adult, 3 mg/kg CP 55,940): 7.87E-11
- N-palmitoyl glycine level, Mean (adult, 3 mg/kg CP 55,940): 2.5E-12
- N-palmitoyl leucine level, Mean (adult, 3 mg/kg CP 55,940): 3E-12
- N-palmitoyl methionine level, Mean (adult, 3 mg/kg CP 55,940): PISSR
- N-palmitoyl phenylalanine level, Mean (adult, 3 mg/kg CP 55,940): 3.31E-13
- N-palmitoyl proline level, Mean (adult, 3 mg/kg CP 55,940): PISSR
- N-palmitoyl serine level, Mean (adult, 3 mg/kg CP 55,940): 4.99E-11
- N-palmitoyl tryptophan level, Mean (adult, 3 mg/kg CP 55,940): BDL
- N-palmitoyl tyrosine level, Mean (adult, 3 mg/kg CP 55,940): 2.47E-12
- N-palmitoyl valine level, Mean (adult, 3 mg/kg CP 55,940): PISSR
- N-stearoyl GABA level, Mean (adult, 3 mg/kg CP 55,940): 2.26E-11
- N-stearoyl alanine level, Mean (adult, 3 mg/kg CP 55,940): 4.15E-12
- N-stearoyl ethanolamine level, Mean (adult, 3 mg/kg CP 55,940): 3.49E-11
- N-stearoyl glycine level, Mean (adult, 3 mg/kg CP 55,940): 3.37E-12
- N-stearoyl leucine level, Mean (adult, 3 mg/kg CP 55,940): 3.52E-12
- N-stearoyl phenylalanine level, Mean (adult, 3 mg/kg CP 55,940): 4.25E-13
- N-stearoyl proline level, Mean (adult, 3 mg/kg CP 55,940): BDL
- N-stearoyl serine level, Mean (adult, 3 mg/kg CP 55,940): PISSR
- N-stearoyl tryptophan level, Mean (adult, 3 mg/kg CP 55,940): BDL
- Oleic acid level, Mean (adult, 3 mg/kg CP 55,940): 1.22E-09
- PGE2 level, Mean (adult, 3 mg/kg CP 55,940): 2.64E-10
- PhosphoLEA level, Mean (adult, 3 mg/kg CP 55,940): 2.11E-11
- THC level, Mean (adult, 3 mg/kg CP 55,940): BDL
